# Test results published in US8288411B2, “Pyrrolidines and piperidines as orexin receptor antagonists” (Actelion Pharmaceuticals Ltd., priority 2007, dated 2012).
# Where two headings read alike, the source gives them in different places.
# Experiments:
# human orexin-1 receptor = target: T1, human orexin-1 receptor (Homo sapiens, UniProt O43613); experiment: FLIPR intracellular calcium assay, orexin receptor antagonistic activity, CHO cells expressing human orexin-1 receptor; assay type: cell-based; details: read-out: OX1 IC50
# T1 construct: expressed in transfected cells; host or cells: CHO cells (G418 selection)
# T1 sequence (O43613 1-425): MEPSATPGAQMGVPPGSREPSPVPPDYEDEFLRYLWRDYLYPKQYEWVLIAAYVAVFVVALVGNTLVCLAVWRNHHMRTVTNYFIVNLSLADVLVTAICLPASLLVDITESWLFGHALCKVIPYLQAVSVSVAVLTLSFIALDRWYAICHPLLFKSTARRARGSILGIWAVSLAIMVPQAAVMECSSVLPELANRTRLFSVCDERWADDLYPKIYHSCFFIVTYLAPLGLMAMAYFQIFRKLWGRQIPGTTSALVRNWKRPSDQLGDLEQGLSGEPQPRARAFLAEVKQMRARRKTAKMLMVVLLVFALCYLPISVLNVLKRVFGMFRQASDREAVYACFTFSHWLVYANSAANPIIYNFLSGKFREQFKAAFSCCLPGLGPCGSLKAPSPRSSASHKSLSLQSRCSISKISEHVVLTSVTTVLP
# Protocol: (§1) The orexin receptor antagonistic activity of the compounds of formula (I) is determined in accordance with one of the following experimental methods.
# (§2) Chinese hamster ovary (CHO) cells expressing the human orexin-1 receptor and the human orexin-2 receptor, respectively, are grown in culture medium (Ham F-12 with L-Glutamine) containing 300 μg/ml G418, 100 U/ml penicillin, 100 μg/ml streptomycin and 10% heat inactivated fetal calf serum (FCS). The cells are seeded at 20'000 cells/well into 384-well black clear bottom sterile plates (Greiner). The seeded plates are incubated overnight at 37° C. in 5% CO2.
# (§3) Human orexin-A as an agonist is prepared as 1 mM stock solution in MeOH: water (1:1), diluted in HBSS containing 0.1% bovine serum albumin (BSA), NaHCO3: 0.375 g/l and 20 mM HEPES for use in the assay at a final concentration of 3 nM.
# (§4) Antagonists are prepared as 10 mM stock solution in DMSO, then diluted in 384-well plates, first in DMSO, then in HBSS containing 0.1% bovine serum albumin (BSA), NaHCO3: 0.375 g/l and 20 mM HEPES.
# (§5) On the day of the assay, 50 μl of staining buffer (HBSS containing 1% FCS, 20 mM HEPES, NaHCO3: 0.375 g/l, 5 mM probenecid (Sigma) and 3 μM of the fluorescent calcium indicator fluo-4 AM (1 mM stock solution in DMSO, containing 10% pluronic) is added to each well.
# (§6) The 384-well cell-plates are incubated for 50 min at 37° C. in 5% CO2 followed by equilibration at RT for 30-120 min before measurement.
# (§7) Within the Fluorescent Imaging Plate Reader (FLIPR2 or FLIPR Tetra, Molecular Devices), antagonists are added to the plate in a volume of 10 μl/well, incubated for 10 min and finally 10 μl/well of agonist is added. Fluorescence is measured for each well at 1 second intervals, and the height of each fluorescence peak is compared to the height of the fluorescence peak induced by 3 nM orexin-A with vehicle in place of antagonist. For each antagonist, the IC50 value (the concentration of compound needed to inhibit 50% of the agonistic response) is determined. Optimized conditions may be achieved by adjustment of pipetting speed and cell splitting regime. The calculated IC50 values of the compounds may fluctuate depending on the daily cellular assay performance. Fluctuations of this kind are known to those skilled in the art.
# human orexin-2 receptor = target: T2, human orexin-2 receptor (Homo sapiens, UniProt O43614); experiment: FLIPR intracellular calcium assay, orexin receptor antagonistic activity, CHO cells expressing human orexin-2 receptor; assay type: cell-based; details: read-out: OX2 IC50
# T2 construct: expressed in transfected cells; host or cells: CHO cells (G418 selection)
# T2 sequence (O43614 1-444): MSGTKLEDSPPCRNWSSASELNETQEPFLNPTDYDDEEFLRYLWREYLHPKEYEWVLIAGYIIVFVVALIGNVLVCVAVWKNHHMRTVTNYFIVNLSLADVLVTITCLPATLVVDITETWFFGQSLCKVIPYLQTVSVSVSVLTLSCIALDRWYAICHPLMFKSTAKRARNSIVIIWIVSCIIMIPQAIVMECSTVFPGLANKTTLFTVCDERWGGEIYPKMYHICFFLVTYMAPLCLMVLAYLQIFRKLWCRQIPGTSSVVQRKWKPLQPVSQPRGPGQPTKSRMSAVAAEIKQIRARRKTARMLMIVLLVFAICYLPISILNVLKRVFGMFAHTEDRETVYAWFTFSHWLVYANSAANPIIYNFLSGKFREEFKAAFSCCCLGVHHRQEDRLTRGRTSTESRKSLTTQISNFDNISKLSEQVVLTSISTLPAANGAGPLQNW
# Protocol: as §1, §2, §3, §4, §5, §6, §7
# [1] = measured with FLIPR 2, 3 nM orexin-A as agonist
# [2] = marked with *: measured with FLIPR Tetra, 3 nM orexin-A as agonist
Structure (SMILES),IC50 (human orexin-1 receptor; [1]) [nM],IC50 (human orexin-2 receptor; [1]) [nM],IC50 (human orexin-1 receptor; [2]) [nM],IC50 (human orexin-2 receptor; [2]) [nM]
Cc1nc2sccn2c1C(=O)NC[C@@H]1CCCCN1C(=O)c1nc(-c2ccc(F)cc2)sc1-c1ccc(F)cc1 [Example 3],1,24,–,–
"COc1cccc(-c2nc(C(=O)N3CCCC[C@H]3CNC(=O)c3c(C)nc4sccn34)c(-c3ccc(F)cc3)s2)c1 [Example 5, (S)-6-methyl-imidazo[2,1-b]thiazole-5-carboxylic acid{1-[5-(4-fluoro-phenyl)-2-(3-methoxy-phenyl)-thiazole-4-carbonyl]-piperidin-2-ylmethyl}-amide]",2,7,–,–
"O=C(NC[C@@H]1CCCCN1C(=O)c1nc(-c2ccccc2)sc1-c1ccccc1F)c1cccc2c1CCO2 [Example 17, (S)-2,3-dihydro-benzofuran-4-carboxylic acid{1-[5-(2-fluoro-phenyl)-2-phenyl-thiazole-4-carbonyl]-piperidin-2-ylmethyl}-amide]",–,–,20,68
"Cn1cc(C(=O)NC[C@@H]2CCCCN2C(=O)c2nc(-c3ccccc3)sc2-c2ccccc2F)c2ccccc21 [Example 24, (S)-1-methyl-1H-indole-3-carboxylic acid{1-[5-(2-fluoro-phenyl)-2-phenyl-thiazole-4-carbonyl]-piperidin-2-ylmethyl}-amide]",–,–,10,60
"Cc1ccc(-c2sc(-c3ccccc3)nc2C(=O)N2CCCC[C@H]2CNC(=O)c2c(C)nc3sccn23)cc1 [Example 38, (S)-6-methyl-imidazo[2,1-b]thiazole-5-carboxylic acid[1-(2-phenyl-5-p-tolyl-thiazole-4-carbonyl)-piperidin-2-ylmethyl]-amide]",2,8,–,–
"Cn1nc(C(=O)NC[C@@H]2CCCN2C(=O)c2nc(-c3cccnc3)sc2-c2cccc(Cl)c2)c2ccccc21 [Example 44, (S)-1-methyl-1H-indazole-3-carboxylic acid{1-[5-(3-chloro-phenyl)-2-pyridin-3-yl-thiazole-4-carbonyl]-pyrrolidin-2-ylmethyl}-amide]",–,–,9,18
"Cc1cccc(-c2nc(C(=O)N3CCC[C@H]3CNC(=O)c3c(C)nc4sccn34)c(-c3ccc(F)cc3)s2)c1 [Example 45, (S)-6-methyl-imidazo[2,1-b]thiazole-5-carboxylic acid{1-[5-(4-fluoro-phenyl)-2-m-tolyl-thiazole-4-carbonyl]-pyrrolidin-2-ylmethyl}-amide]",1,12,–,–
